# In US6716867B1, “Use of dexmedetomidine for ICU sedation” (priority 1998, dated 2004):
# “And” between values parts separate entries of the source, which are not always exact repeats. Equal entries are not always repeated. Where two headings read alike, the source gives them in different places.
# Legend:
# [1] = test system: postsurgical ICU patients
# Excerpt: (§1) Two Phase III dexmedetomidine multicenter clinical trials (Trial 1 and Trial 2) have been conducted in ICU sedation in Europe and Canada. Each trial had two parts, i.e., an open-label part (Part I) and double-blind, randomized, placebo-controlled part (Part II). The trials were designed to evaluate the reduction in requirements for ICU sedation (as measured by administration of other sedative/analgesic agents) in patients receiving dexmedetomidine. The use of propofol and morphine for sedation and analgesia, respectively, was evaluated in one trial (Trial 1), and midazolam and morphine in the other trial (Trial 2).
# (§2) In Part I of the trials patients were to be administered a 6.0 μg/kg/h loading dose of dexmedetomidine over a 10-minute period, followed by an initial maintenance infusion of 0.4 μg/kg/h. During Part II of the study, patients were randomly assigned to receive either placebo (0.9% sodium chloride solution) or dexmedetomidine. […] The dexmedetomidine dosing protocol was the same as in the Part I of the study. […] Following extubation, the infusion rate was to be adjusted to achieve a Ramsay Sedation Score of 2 or higher.
# (§3) During the 10-minute loading dose, additional medication was to be avoided, but propofol (0.2-mg/kg bolus) in Trial 1 and midazolam (1-mg bolus) in Trial 2 could be given if necessary. During dexmedetomidine infusion, rescue medications were limited to propofol (0.2 mg/kg IV boluses) in Trial 1 and midazolam ([…]) in Trial 2 for sedation and morphine for pain (2-mg IV boluses). After extubation, paracetamol was to be permitted for pain as clinically indicated. Propofol and midazolam were to be given only after increasing the dexmedetomidine infusion rate. Dexmedetomidine administration in Parts I and II was to begin within 1 hour of admission to the ICU and to be continued for 6 hours after extubation to a maximum of 24 hours total study drug infusion. Patients were observed and assessed for an additional 24 hours after cessation of dexmedetomidine.
# The following 16 cases are from the above mentioned Part II of trials 1 and 2.
# [2] = test system: postoperative CABG patients requiring mechanical ventilation in the ICU
# Experimental: A double-blind, randomized, placebo-controlled study was conducted to evaluate the efficacy, safety, and titratability of dexmedetomidine in mechanically ventilated patients requiring sedation in the ICU. […] Twelve adult postoperative CABG patients requiring mechanical ventilation in the ICU who met the study selection criteria were eligible for participation.
# The selection criteria were as follows. The patients required sedation for mechanical ventilation for a minimum of 8 hours following surgery, followed by continued sedation for 6 hours after extubation. The patients were not to have been intubated longer than 24 hours to be evaluable for the test. The patients received only morphine for management for pain and received none of the following medications during study drug administration: sedating agents other than midazolam, neuromuscular blocking agents except for insertion of the endotrachael tube, epidural or spinal analgesic/anesthetic agents.
# Safety was evaluated through the monitoring of adverse events, cardiac monitoring, laboratory tests, vital signs, oxygen saturation, and concomitant medications.
# Twelve patients were randomly assigned to receive either dexmedetomidine or placebo with rescue treatment for sedation with midazolam, as clinically indicated. Patients randomized to dexmedetomidine were to receive a 10-minute loading dose of 6.0 μg/kg/h, followed by an initial maintenance infusion. The rate of maintenance infusion was 0.4 μg/kg/h. The maintenance rate of infusion could be titrated in increments of 0.1 μg/kg/h to achieve and maintain a Ramsey Sedation Score of 3 or higher. The range for the maintenance infusion was to be kept between 0.2 and 0.7 μg/kg/h. Dexmedetomidine administration was to begin within one hour after admission to the ICU and continued until 6 hours after extubation. […] The placebo was 0.9% sodium chloride solution administered the same way dexmedetomidine was administered.
# ICU patients [3] = assay: Phase III multicenter ICU sedation trial, Trial 2 (midazolam and morphine as rescue)
# Excerpt: as §1, §2, §3
# ICU patients [4] = assay: Phase III multicenter ICU sedation trial, Trial 1 (propofol and morphine as rescue); settings: for dexmedetomidine-treated patients who died: none considered related to dexmedetomidine
# Excerpt: as §1, §2, §3
# [5] = test system: postoperative coronary artery bypass graft(s) patients (CABG), requiring sedation in the ICU
# [6] = case 4, immediately after extubation
smiles,measurement,setting,value
"Cc1cccc([C@H](C)c2c[nH]cn2)c1C [dexmedetomidine, (+)-(S)-4-[1-(2,3-dimethylphenyl)ethyl]-1H-imidazole]",morphine doses required while receiving dexmedetomidine,"[1]; case 1, 5 minutes before extubation",one
same,Ramsay Sedation Score,"[1]; case 1, after the first hour",3
same,Ramsay Sedation Score,"[1]; case 1, during the first hour",6
same,Ramsay Sedation Score,"[1]; case 1, later",2
same,analgesic requirement,"[1]; case 2, during the 12-hour infusion 0.2 to 0.7 μg/kg/h",required no morphine or other analgesic
same,Ramsay Sedation Score,"[1]; case 3, after the first hour",4
same,Ramsay Sedation Score,"[1]; case 3, during the first hour (baseline score, fully anaesthetized after surgery)",6
same,midazolam and morphine requirement,"[1]; case 3, maintenance 0.2 to 0.3 μg/kg/h",required no midazolam or morphine
same,Ramsay Sedation Score,"[1]; case 3, subsequently",3
same,midazolam required,[1]; [6],2 mg
same,morphine required,[1]; [6],2 mg
same,morphine dose required,"[1]; case 5, after dexmedetomidine infusion was discontinued",76 mg
same,midazolam dose received,"[1]; case 5, at 46 minutes and again at 66 minutes after start of infusion",2 mg
same,initial postoperative morphine requirements,"[1]; case 5, during dexmedetomidine infusion",24 mg
same,morphine requirement while on dexmedetomidine,[1]; case 6,required no morphine
same,morphine required,"[1]; case 6, after extubation and cessation of infusion, before discharge from the ICU",4 mg
same,"midazolam administered, total","[1]; case 6, agitation over endotracheal tube at maximum allowable dose",16 mg
same,morphine required,"[1]; case 6, first few hours after return to the ward",~50 mg
same,morphine and midazolam requirement,"[1]; case 6, first hours of infusion",required no morphine or midazolam
same,Ramsey Sedation Score,"[1]; case 6, maintenance 0.4 to 0.7 μg/kg/h",approximately 4
same,Ramsey Sedation Score,"[1]; case 7, 0.4 titrated to 0.7 μg/kg/h",approximately 4
same,morphine requirements,"[1]; case 7, first 6 hours in the ICU, graft failure with ongoing bleeding",fluctuated markedly
same,propofol and morphine requirement,"[1]; case 8, after propofol discontinued at 3 hours, dexmedetomidine tapered to 0.2 μg/kg/h",No additional propofol or morphine was required
same,Ramsey Sedation Score,"[1]; case 8, dexmedetomidine 0.7 μg/kg/h with propofol 4 mg/kg/h, oversedated",6
same,Ramsey Sedation Score,"[1]; case 9, while receiving dexmedetomidine",3
same,additional sedative and analgesia requirement,"[1]; case 10, during the infusion",required no additional sedatives and very little analgesia
same,Ramsey Sedation Score,"[1]; case 10, intubated, infusion 0.4-0.7 μg/kg/h",4
same,additional sedative requirement,"[1]; case 11, history of excessive alcohol intake, infusion between 0.3 and 0.7 μ/kg/h",no additional sedatives were required
same,anxiolysis and orientation,"[1]; case 12, high preoperative anxiety, infusion 0.2-0.5 μg/kg/h","calm, had no fear or apprehension, and was well oriented"
same,achievement of desired level of sedation,"[1]; case 13, FIG. 2",very easily achieved with little dose adjustment
same,morphine sulfate required (single dose),"[1]; case 13, at 6 hours into the study period",2 mg
same,opiate requirement,"[1]; case 14, before extubation",no opiate was required
same,Ramsey Sedation Score,"[1]; case 14, first half hour",6
same,morphine required (single injection),"[1]; case 14, moderate pain after extubation",2 mg
same,Ramsey Sedation Score,"[1]; case 14, remainder of ICU stay after titration (score of 2 or 3)",2 and 3
same,Ramsey Sedation Score,"[1]; case 15, infusion titrated",approximately 3
same,PaCO2,[1]; in vivo,stable
same,blood pressure,[1]; in vivo,transient increase
same,blood pressure (hypotension),[1]; in vivo,70/40
same,haemodynamic instability,[1]; in vivo,No evidence of haemodynamic instability
same,hemodynamic profile,[1]; in vivo,smooth without hypotension or episodes of bradycardia
same,hypotension,[1]; in vivo,one episode of moderate hypotension
same,respiratory depressant effect,[1]; in vivo,absence of a respiratory depressant effect
same,respiratory depression,[1]; in vivo,no respiratory depression
same,"midazolam for sedation or morphine for pain required, vs placebo","[2]; human, in vivo",significantly less
same,respiratory depression,"[2]; human, in vivo",no clinically apparent respiratory depression
same,safety and tolerability,"[2]; human, in vivo",safe and well tolerated
same,need for midazolam rescue for sedation,"[2]; six dexmedetomidine-sedated patients, difference to placebo in mean total midazolam dose p=0.010",did not require any midazolam
same,patients who required morphine for management of pain,"[2]; vs five of six on placebo, mean total morphine dose difference p=0.040",One of six
same,"midazolam required for sedation, vs placebo",ICU patients [3]; Trial 2,significantly less
same,"morphine required for pain, vs placebo",ICU patients [3]; Trial 2,significantly less
same,deaths among dexmedetomidine-treated patients,"ICU patients [3]; Trial 2, Part I and Part II, five placebo-treated patients died",No deaths
same,speed of achieving sedation levels,"ICU patients [3]; Trial 2, vs placebo-treated patients who received midazolam",more quickly
same,"changes in systolic blood pressure, diastolic blood pressure and heart rate",ICU patients [3]; in vivo,consistent with the known pharmacological effect of α2-agonists
same,respiratory depression,ICU patients [3]; in vivo,no clinically apparent respiratory depression
same,safety and tolerability,ICU patients [3]; in vivo,safe and well tolerated
same,"morphine required for pain, vs placebo",ICU patients [4]; Trial 1,significantly less
same,"propofol required for sedation, vs placebo",ICU patients [4]; Trial 1,significantly less
same,dexmedetomidine-treated patients who died,"ICU patients [4]; Trial 1, Part I",three
same,dexmedetomidine-treated patients who died,"ICU patients [4]; Trial 1, Part II, one placebo-treated patient died",three
same,speed of achieving sedation levels,"ICU patients [4]; Trial 1, vs placebo-treated patients who received propofol",more quickly
same,"changes in systolic blood pressure, diastolic blood pressure and heart rate",ICU patients [4]; in vivo,consistent with the known pharmacological effect of α2-agonists
same,respiratory depression,ICU patients [4]; in vivo,no clinically apparent respiratory depression
same,safety and tolerability,ICU patients [4]; in vivo,safe and well tolerated
same,patients who required morphine for pain,"[5]; 12 patients, infusion 0.2 to 0.7 μg/kg/h",Two
same,patients with serious adverse events,"[5]; 12 patients, circulatory failure and myocardial infarction, infarction had little or no temporal relationship to dexmedetomidine",One
same,quality of sedation,[5]; dexmedetomidine as only pharmaceutical,"conveniently sedated, hemodynamically stable, and remained easily arousable"
same,blood pressure and heart rate variability,[5]; during administration of dexmedetomidine,decreased
same,time until clinical effects of sedation became evident,"[5]; iv loading 6 μg/kg/h over 10 min, then maintenance 0.2 or 0.4 μg/kg/h",15 to 30 min
